# Results taken from publication PMC10454728, “A Comparative Study on the Lysosomal Cation Channel TMEM175 Using Automated Whole-Cell Patch-Clamp, Lysosomal Patch-Clamp, and Solid Supported Membrane-Based Electrophysiology: Functional Characterization and High-Throughput Screening Assay Development” (International Journal of Molecular Sciences, 2023).
# Legend:
# TMEM175 [1] = target: T1, TMEM175 (Homo sapiens, UniProt Q9BSA9); assay: SSME cation selectivity assay with 4-AP block (SURFE2R 96SE); type: biochemical; conditions: 10 mM 4-AP
# T1 sequence (Q9BSA9 1-504): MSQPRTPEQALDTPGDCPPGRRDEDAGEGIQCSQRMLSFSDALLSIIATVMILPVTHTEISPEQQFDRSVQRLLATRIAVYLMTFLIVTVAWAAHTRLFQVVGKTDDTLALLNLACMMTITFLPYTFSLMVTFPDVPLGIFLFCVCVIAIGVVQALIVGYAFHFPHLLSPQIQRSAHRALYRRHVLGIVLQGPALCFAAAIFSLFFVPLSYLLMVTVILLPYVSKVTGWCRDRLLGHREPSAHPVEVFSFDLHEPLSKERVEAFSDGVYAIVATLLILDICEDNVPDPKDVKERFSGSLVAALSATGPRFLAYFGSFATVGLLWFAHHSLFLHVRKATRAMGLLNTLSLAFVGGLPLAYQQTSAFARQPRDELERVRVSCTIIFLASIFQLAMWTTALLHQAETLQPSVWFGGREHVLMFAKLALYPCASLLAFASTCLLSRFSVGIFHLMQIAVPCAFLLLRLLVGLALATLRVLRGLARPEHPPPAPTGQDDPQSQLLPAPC
# Excerpt: We performed the same experiment on lysosomes purified from HEK293 cells overexpressing TMEM175 (TMEM175 sample, Figure 2B) and control lysosomes that were purified from HEK293 cells expressing endogenous TMEM175 (control sample, Figure 2C), using a low sample dilution to enhance the signal-to-noise.
# We also performed a similar series of experiments on the SURFE^2R 96SE, essentially reproducing the results found with the SURFE^2R N1 (Figure 2E). […] Supplementary Figure S2 contains representative current traces and additional experimental details.
# We applied a solution exchange from 50 mM NMDG-Cl to 50 mM of a different Cl salt at pH 7.6; (B) Representative current traces recorded with the TMEM175 sample. All traces are recorded from the same sensor; (C) Representative current traces recorded with the control sample. Currents reflect background signals (artifacts) resulting from ion–membrane interactions; (D) Average peak currents and SD for N = 5 sensors recorded with the TMEM175 and control samples; (E) Average peak currents and SEM for N = 16 sensors, recorded with the TMEM175 (left) and control (right) sample. […]
# Ion selectivity of TMEM175 recorded on the SURFE2R 96SE. Representative current traces recorded using different cation species on TMEM175 and control samples using the SURFE2R 96SE. […]
# TMEM175 [2] = target: T1, TMEM175; assay: SSME H+ flux assay (pH jumps) on TMEM175 lysosomes (SURFE2R N1); type: biochemical; conditions: 10 mM 4-AP
# Excerpt: To further investigate the capability of TMEM175 to translocate protons using SSME, we performed H^+ concentration or pH jumps using the SURFE^2R N1. The non-activating solution was set to pH 7.6, defining both the lysosomal and cytosolic pH before the start of the experiment. By exchanging the non-activating for the activating solution, we acidified the cytosolic solution and stimulated H^+ influx through TMEM175 (Figure 5A).
# However, the application of pH jumps lead to significant artifact currents of positive magnitude, as observed with the control lysosomes (Figure 5C). These artifacts are a result of protons interacting with the lipid membranes and/or unknown H^+ leak pathways through the lysosomal membrane. To conclude pure TMEM175-related H^+ currents, we subtracted the artifact currents from the currents recorded with the TMEM175 sample. When plotting ΔpH against the artifact-corrected average TMEM175 net H^+ current, we obtain a close-to-linear correlation (Figure 5D).
# For comparison with the I/c curve reported for K^+ (Figure 3E), we calculated the difference in H^+ concentration across the lysosomal membrane Δc = cH^out − cH^in, which correlates linearly with the passive H^+ flux J = PH+Δc according to Fick’s law.
# We used H^+ concentration or pH jumps to measure H^+ flux through TMEM175. Non-activating solution was set to pH 7.6, while activating solution contained different pH values between pH 7.4 and pH 4.6; (B) Representative current traces induced by pH jumps on lysosomes overexpressing TMEM175. All current traces were recorded with the same sensor, starting from the lowest ΔpH. […] The remaining current mostly reflects the background (artifact) current after full block of TMEM175; (C) Representative current traces from the same experiment on control lysosomes. […] This represents the artifact current also underlying the currents recorded with the TMEM175 sample; (D) SEM and average, artifact-corrected, normalized peak currents from N = 4 sensors, reflecting the H^+ flux through TMEM175, solely driven by the pH gradient. […]
smiles,measurement,setting,value
"Nc1ccncc1 [4-AP, 4-aminopyridine]","Block of TMEM175 net currents for K+, Rb+ and Cs+",TMEM175 [1],complete blockade
same,Block of H+ influx current,"TMEM175 [2]; ΔpH 3.0, pH 7.6 to 4.6",full block
same,Effect on H+ efflux currents,TMEM175 [2]; potency lower than for H+ influx,inhibited
